Test results: patent publication US10118930B2, “Piperidinylpyrazolopyrimidinones and their use” (BAYER PHARMA AKTIENGESELLSCHAFT, priority 2015, dated 2018)
Structures can show the parent of a compound that is named as a salt.

Test system: clot lysis (fibrinolysis) in diluted human citrated plasma, tPA-induced
Test: Plasma-based clot lysis assay (5%)
Assay type: biochemical
Conditions: human citrated platelet-poor plasma 5%, fibrinogen 3 μM, CaCl2 10 mM, tPA 0.2 nM, 37° C., OD at 405 nm
Method in brief: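 Clot formation and breakdown triggered by CaCl2 (10 mM final) plus tPA (0.2 nM final) at 37° C, in 5% diluted human plasma supplemented with 3 μM fibrinogen (HEPES/NaCl/Brij buffer, pH 7). IC50 obtained from time courses relative to a blank control.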

IC50 | SMILES
35 nM | CCCCc1nnc(-c2cnn3c(C4CCNCC4)cc(=O)[nH]c23)o1 [Example 295, 3-(5-butyl-1,3,4-oxadiazol-2-yl)-7-(piperidin-4-yl)pyrazolo[1,5-a]pyrimidin-5(4H)-one hydrochloride]
25 nM | O=c1cc(C2CCNCC2)n2ncc(-c3nnc(Cc4c(F)cccc4Cl)o3)c2[nH]1 [Example 279, 3-[5-(2-chloro-6-fluorobenzyl)-1,3,4-oxadiazol-2-yl]-7-(piperidin-4-yl)pyrazolo[1,5-a]pyrimidin-5(4H)-one hydrochloride]
12 nM | Cc1nn2c(C3CCNCC3)cc(=O)[nH]c2c1-c1nc(-c2ccccc2F)no1 [Example 438, 3-[3-(2-fluorophenyl)-1,2,4-oxadiazol-5-yl]-2-methyl-7-(piperidin-4-yl)pyrazolo[1,5-a]pyrimidin-5(4H)-one hydrochloride]
30 nM | CCC(=O)c1cnn2c(C3CCNCC3)cc(=O)[nH]c12 [Example 371, 7-(piperidin-4-yl)-3-propanoylpyrazolo[1,5-a]pyrimidin-5(4H)-one hydrochloride]
22 nM | CCCCCCc1nc(-c2cnn3c(C4CCNCC4)cc(=O)[nH]c23)no1 [Example 379, 3-(5-Hexyl-1,2,4-oxadiazol-3-yl)-7-(piperidin-4-yl)pyrazolo[1,5-a]pyrimidin-5(4H)-one hydrochloride]
27 nM | Cc1cc(CN(C)C(=O)c2cnn3c(C4CCNCC4)cc(=O)[nH]c23)no1 [Example 316, N-methyl-N-[(5-methyl-1,2-oxazol-3-yl)methyl]-5-oxo-7-(piperidin-4-yl)-4,5-dihydropyrazolo[1,5-a]pyrimidine-3-carboxamide hydrochloride]
41 nM | Cc1ccc(-c2csc(-c3cnn4c(C5CCNCC5)cc(=O)[nH]c34)n2)cc1 [Example 309, 3-[4-(4-methylphenyl)-1,3-thiazol-2-yl]-7-(piperidin-4-yl)pyrazolo[1,5-a]pyrimidin-5(4H)-one hydrochloride]
39 nM | CC(C)(C)C(=O)c1cnn2c(C3CCNCC3)cc(=O)[nH]c12 [Example 456, 3-(2,2-dimethylpropanoyl)-7-(piperidin-4-yl)pyrazolo[1,5-a]pyrimidin-5(4H)-one hydrochloride]
37 nM | Cc1nn2c(C3CCNCC3)cc(=O)[nH]c2c1C(=O)N1CCC2CCCCC2C1 (stereo not drawn) [Example 405, 2-methyl-3-(octahydro-isoquinolin-2(1H)-ylcarbonyl)-7-(piperidin-4-yl) pyrazolo[1,5-a] pyrimidin-5(4H)-one hydrochloride]
23 nM | O=C(OC1CCC1)c1cnn2c(C3CCNCC3)cc(=O)[nH]c12 [Example 356, Cyclobutyl 5-oxo-7-(piperidin-4-yl)-4,5-dihydropyrazolo[1,5-a]pyrimidine-3-carboxylate hydrochloride]
37 nM | Cc1nn2c(C3CCNCC3)cc(=O)[nH]c2c1C(=O)N(C)CC1CC1 [Example 425, N-(cyclopropyl-methyl)-N,2-dimethyl-5-oxo-7-(piperidin-4-yl)-4,5-dihydro-pyrazolo[1,5-a] pyrimidine-3-carboxamide hydrochloride]
120 nM | O=C(c1cnn2c(C3CCNCC3)cc(=O)[nH]c12)N1CCC12CCOCC2 [Example 359, 3-(7-oxa-1-azaspiro[3.5]non-1-ylcarbonyl)-7-(piperidin-4-yl)pyrazolo[1,5-a]pyrimidin-5(4H)-one trifluoroacetate]
120 nM | CCCN(CC)C(=O)c1c(C)nn2c(C3CCNCC3)cc(=O)[nH]c12 [Example 432, N-ethyl-2-methyl-5-oxo-7-(piperidin-4-yl)-N-propyl-4,5-dihydro-pyrazolo[1,5-a] pyrimidine-3-carboxamide hydrochloride]
32 nM | Cc1nn2c(C3CCNCC3)cc(=O)[nH]c2c1C(=O)N1CCC(C)(C)CC1 [Example 434, 3-[(4,4-dimethyl-piperidin-1-yl)carbonyl]-2-methyl-7-(piperidin-4-yl) pyrazolo[1,5-a] pyrimidin-5(4H)-one hydrochloride]
24 nM | CC(C)CCc1csc(-c2cnn3c(C4CCNCC4)cc(=O)[nH]c23)n1 [Example 304, 3-[4-(3-methylbutyl)-1,3-thiazol-2-yl]-7-(piperidin-4-yl)pyrazolo[1,5-a]pyrimidin-5 (4H)-one hydrochloride]

Continued, molecule first:

SMILES | IC50
O=c1cc(C2CCNCC2)n2ncc(-c3cccnc3)c2[nH]1 [Example 5, 7-(Piperidin-4-yl)-3-(pyridin-3-yl)pyrazolo[1,5-a]pyrimidin-5 (4H)-one hydrochloride] | 32 nM
COCC(C)(C)c1noc(-c2cnn3c(C4CCNCC4)cc(=O)[nH]c23)n1 [Example 105, 3-[3-(1-methoxy-2-methylpropan-2-yl)-1,2,4-oxadiazol-5-yl]-7-(piperidin-4-yl)pyrazolo[1,5-a]pyrimidin-5(4H)-one] | 95 nM
CC(c1ccccc1)c1noc(-c2cnn3c(C4CCNCC4)cc(=O)[nH]c23)n1 (stereo not drawn) [Example 215, 3-[3-(1-phenylethyl)-1,2,4-oxadiazol-5-yl]-7-(piperidin-4-yl)pyrazolo[1,5-a]pyrimidin-5(4H)-one hydrochloride] | 34 nM
COc1ccccc1-c1noc(-c2cnn3c(C4CCNCC4)cc(=O)[nH]c23)n1 [Example 160, 3-[3-(2-methoxyphenyl)-1,2,4-oxadiazol-5-yl]-7-(piperidin-4-yl)pyrazolo[1,5-a]pyrimidin-5(4H)-one hydrochloride] | 73 nM
Cc1ccc(-c2noc(-c3cnn4c(C5CCNCC5)cc(=O)[nH]c34)n2)cc1Cl [Example 123, 3-[3-(3-Chloro-4-methylphenyl)-1,2,4-oxadiazol-5-yl]-7-(piperidin-4-yl)pyrazolo[1,5-a]pyrimidin-5(4H)-one hydrochloride] | 47 nM
C=C(C)c1cnn2c(C3CCNCC3)cc(=O)[nH]c12 [Example 449, 7-(piperidin-4-yl)-3-(prop-1-en-2-yl)pyrazolo[1,5-a]pyrimidin-5 (4H)-one hydrochloride] | 55 nM
COc1ccc(-c2noc(-c3cnn4c(C5CCNCC5)cc(=O)[nH]c34)n2)cc1Cl [Example 142, 3-[3-(3-Chloro-4-methoxyphenyl)-1,2,4-oxadiazol-5-yl]-7-(piperidin-4-yl)pyrazolo[1,5-a]pyrimidin-5(4H)-one hydrochloride] | 41 nM
CCC(=O)N1CCN(C(=O)c2cnn3c(C4CCNCC4)cc(=O)[nH]c23)CC1 [Example 98, 7-(piperidin-4-yl)-3-[(4-propanoylpiperazin-1-yl)carbonyl]pyrazolo[1,5-a]pyrimidin-5(4H)-one hydrochloride] | 90 nM
CCc1cnn2c(C3CCNCC3)cc(=O)[nH]c12 [Example 265, 3-ethyl-7-(piperidin-4-yl)pyrazolo[1,5-a]pyrimidin-5(4H)-one hydrochloride] | 340 nM
O=c1cc(C2CCNCC2)n2ncc(-c3nc(-c4ccc(OC(F)(F)F)c(Cl)c4)no3)c2[nH]1 [Example 149, 3-{3-[3-Chloro-4-(trifluoromethoxy)phenyl]-1,2,4-oxadiazol-5-yl}-7-(piperidin-4-yl)pyrazolo[1,5-a]pyrimidin-5(4H)-one hydrochloride] | 100 nM
C[C@H]1C[C@H](c2cc(=O)[nH]c3c(Cl)cnn23)CCN1 [Example 40, (−)-trans-3-Chloro-7-(2-methylpiperidin-4-yl)pyrazolo[1,5-a]pyrimidin-5(4H)-one hydrochloride] | 14 nM
O=c1cc(C2CCNCC2)n2ncc(-c3nnc(-c4ccc(Cl)cc4)o3)c2[nH]1 [Example 181, 3-[5-(4-chlorophenyl)-1,3,4-oxadiazol-2-yl]-7-(piperidin-4-yl)pyrazolo[1,5-a]pyrimidin-5(4H)-one hydrochloride] | 28 nM
O=C(c1c(-c2ccccc2)nn2c(C3CCNCC3)cc(=O)[nH]c12)N1CCOCC1 [Example 43, 3-(Morpholin-4-ylcarbonyl)-2-phenyl-7-(piperidin-4-yl)pyrazolo[1,5-a]pyrimidin-5(4H)-one trifluoroacetate] | 27 nM
O=c1cc(C2CCNCC2)n2ncc(-c3nc(Cc4ccccc4)no3)c2[nH]1 [Example 106, 3-(3-benzyl-1,2,4-oxadiazol-5-yl)-7-(piperidin-4-yl)pyrazolo[1,5-a]pyrimidin-5(4H)-one] | 63 nM
O=c1cc(C2CCNCC2)n2ncc(-c3nc(Cc4ccc(F)cc4Cl)no3)c2[nH]1 [Example 195, 3-[3-(2-chloro-4-fluorobenzyl)-1,2,4-oxadiazol-5-yl]-7-(piperidin-4-yl)pyrazolo[1,5-a]pyrimidin-5(4H)-one hydrochloride] | 35 nM
N#Cc1c(Br)nn2c(C3CCNCC3)cc(=O)[nH]c12 [Example 374, 2-bromo-5-oxo-7-(piperidin-4-yl)-4,5-dihydropyrazolo[1,5-a]pyrimidine-3-carbonitrile hydrochloride] | 34 nM
O=c1cc(C2CCNCC2)n2ncc(-c3nc(CCCC(F)(F)F)no3)c2[nH]1 [Example 192, 7-(piperidin-4-yl)-3-[3-(4,4,4-trifluorobutyl)-1,2,4-oxadiazol-5-yl]pyrazolo[1,5-a]pyrimidin-5(4H)-one hydrochloride] | 34 nM
O=C(NC1(Cc2ccccc2)CC1)c1cnn2c(C3CCNCC3)cc(=O)[nH]c12 [Example 94, N-(1-benzylcyclopropyl)-5-oxo-7-(piperidin-4-yl)-4,5-dihydropyrazolo[1,5-a]pyrimidine-3-carboxamide hydrochloride] | 30 nM
O=c1cc(C2CCNCC2)n2ncc(-c3noc(Cc4cccc(Cl)c4)n3)c2[nH]1 [Example 217, 3-[5-(3-chlorobenzyl)-1,2,4-oxadiazol-3-yl]-7-(piperidin-4-yl)pyrazolo[1,5-a]pyrimidin-5(4H)-one hydrochloride] | 36 nM
O=C(NCC1CCCC1)c1cnn2c(C3CCNCC3)cc(=O)[nH]c12 [Example 77] | 62 nM
CC(C)CNC(=O)c1c(-c2ccccc2)nn2c(C3CCNCC3)cc(=O)[nH]c12 [Example 44, trifluoroacetate] | 23 nM
